According to patent publication US20240287093A1, “HIGH ACTIVITY STING PROTEIN AGONIST” (ADLAI NORTYE BIOPHARMA CO., LTD., priority 2018, published 2024):

Columns and labels:
Assay type in all cases: cell-based
[1] = target: T1, STING variants (HAQ) (Homo sapiens, UniProt Q86WV6, G230A/R293Q/R71H); test: SEAP reporter assay in HEK-Blue ISG KO-STING cells transfected with STING HAQ variant (Method 1); settings: 24 h
T1 construct: host or cells: HEK-Blue ISG KO-STING cells (Invivogen, hkb-kostg)
From the text: (§1) Example I: STING Variants (WT & HAQ) Activation by Compounds in HEK-Blue™ ISG KO-STING Cells (Method 1)
(§2) Activation of STING can be determined using a SEAP reporter assay in HEK-Blue™ ISG KO-STING cells (Invivogen, cat #hkb-kostg) transfected with plasmids expressing STING variants (WT & HAQ) (referred to WO2017/175147A1). STING variants (WT & HAQ) vector were constructed based on STING-232H vector (Origene, RC208418). GFP vector (VT2069) was bought from Youbio. The detailed protocol as follows: HEK-Blue™ ISG KO-STING cells were harvest and seeding into 96 well plate, the final cell number was 0.8×10^5 cells/well. Transfections were prepared using Lipofectamine 2000 (Invitrogen, Cat #11668-027) following the manufacturer's instructions (Lipo2000:DNA=1:10), 20 ul of transfection suspension containing 1 ng STING vector was added to cell culture plate and incubated at 37° C., 5% CO2 for 24 h. After 24 hours incubation, compounds were added at proper concentration, and the final DMSO concentration was 0.5%. After 24 h incubation, the supernatant was collected to detect SEAP signal using Great EscAPe SEAP chemiluminescence KIT (Clontech, cat #631738) and cells were collected to detect cell viability using CellTiter-Glo Luminescent Cell Viability Assay (Promega, cat #G7573) following the manufacturer's instructions. The data were described by the ratio of the stimulating signal of compounds to 0.5% DMSO.

[2] = target: T2, STING (Homo sapiens, UniProt Q86WV6, G230A/H232R/R293Q/R71H); test: IFNβ release from THP1 by STING activation (hIFNβ ELISA); settings: THP1 cells, 24 h, IFN-β in supernatant; inactive = IFNβ not detected at the maximum concentration of compounds
T2 construct: THP1 was purchased from National Collection of Authenticated Cell Cultures (Cat #TCHu 57); host or cells: THP1
Experimental: Example III: Compound Stimulate THP1 to Release IFNβ by STING Activation
In this assay, activation of STING by compounds was evaluated by detecting their ability to stimulate the secretion of IFN-β (interferon-beta) from THP1. THP1 was purchased from National Collection of Authenticated Cell Cultures (Cat #TCHu 57). The top dose of compounds was setted according to their solubility. First, Compounds were 3 times diluted with medium, 8-dose points in total. The final DMSO concentration was 0.2%. THP1 during the logarithmic phase was resuspended to 2×10^6 cells/ml in assay medium. The THP1-cell suspension was dispensed into a 96-well U bottom plate containing 50 ul of compound diluted in medium. After 24 h incubation at 37° C., 5% CO2, the supernatant was collected. The concentration of IFN-β in the supernatant was measured using a human IFNβ ELISA KIT (R&D, DY814-05). The data was fitted with GraphPad Prism or XLfit to calculate EC50 values.

[3] = target: T3, STING variants (WT) (Homo sapiens, UniProt Q86WV6); test: SEAP reporter assay in HEK-Blue ISG KO-STING cells transfected with STING WT variant (Method 1); settings: 24 h
T3 construct: host or cells: HEK-Blue ISG KO-STING cells (Invivogen, hkb-kostg)
From the text: as §1, §2

[4] = compound concentration 153.2 μM
[5] = compound concentration 127.7 μM
[6] = compound concentration 75.95 μM
[7] = compound concentration 206.6 μM

T2 sequence (Q86WV6 whole entry R71H/G230A/H232R/R293Q): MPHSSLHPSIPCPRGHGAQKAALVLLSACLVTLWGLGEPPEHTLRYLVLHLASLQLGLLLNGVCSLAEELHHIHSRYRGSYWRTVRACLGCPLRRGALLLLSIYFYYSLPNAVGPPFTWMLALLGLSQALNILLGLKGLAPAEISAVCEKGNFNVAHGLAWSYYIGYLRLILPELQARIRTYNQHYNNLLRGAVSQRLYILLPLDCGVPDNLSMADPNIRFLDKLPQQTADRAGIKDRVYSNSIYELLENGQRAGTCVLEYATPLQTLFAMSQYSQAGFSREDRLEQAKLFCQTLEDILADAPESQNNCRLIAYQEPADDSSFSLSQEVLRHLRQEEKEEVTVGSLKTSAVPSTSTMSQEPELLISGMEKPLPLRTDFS
T1 sequence (Q86WV6 whole entry R71H/G230A/R293Q): as the sequence (Q86WV6 whole entry R71H/G230A/H232R/R293Q) above, with R232H counted along it

Row | SMILES | hIFNβ ELISA (EC50, μM) [2] | Fold change related to DMSO control, HAQ ([1]; compound concentration 25 μM) [fold] | Fold change related to DMSO control, WT ([3]; compound concentration 25 μM) [fold] | other results
1 | CCn1nc(C)cc1C(=O)Nc1nc2cc(C(N)=O)cc3c2n1[C@@H](CCCCNC(=O)OCc1cccnc1)CO3 [Example 18, Pyridin-3-ylmethyl (S)-(4-(7-carbamoyl-2-(1-ethyl-3-methyl-1H-pyrazole-5-carboxamido)-3,4-dihydro-5-oxa-1,2a-diazaacenaphthylen-3-yl)butyl)carbamate] | inactive |  |  | Fold change related to DMSO control, HAQ [1, 4]: 17.64 fold; Fold change related to DMSO control, WT [3, 4]: 1.58 fold
2 | CCn1nc(C)cc1C(=O)Nc1nc2cc(C(N)=O)cc3c2n1CCO3 [Example 11, 2-(1-Ethyl-3-methyl-1H-pyrazole-5-carboxamido)-3,4-dihydro-5-oxa-1,2a-diazaacenaphthylene-7-carboxamide] | inactive |  |  | Fold change related to DMSO control, HAQ ([1]; compound concentration 27.9 μM): 4.20 fold; Fold change related to DMSO control, WT ([3]; compound concentration 27.9 μM): 2.26 fold
3 | CCn1nc(C)cc1C(=O)Nc1nc2cc(C(N)=O)cc3c2n1[C@@H](CCNC(=O)/C=C/c1ccccc1)CO3 [Example 15, (S)-3-(2-Cinnamamidoethyl)-2-(1-ethyl-3-methyl-1H-pyrazole-5-carboxamido)-3,4-dihydro-5-oxa-1,2a-diazaacenaphthylene-7-carboxamide] | inactive |  |  | Fold change related to DMSO control, HAQ [1, 6]: 20.00 fold; Fold change related to DMSO control, WT [3, 6]: 3.68 fold
4 | CCn1nc(C)cc1C(=O)Nc1nc2cc(C(N)=O)cc3c2n1[C@@H](CCNC(=O)OCc1cccnc1)CO3 [Example 8, Pyridin-3-ylmethyl (S)-(2-(7-carbamoyl-2-(1-ethyl-3-methyl-1H-pyrazole-5-carboxamido)-3,4-dihydro-5-oxa-1,2a-diazaacenaphthylen-3-yl)ethyl)carbamate] | inactive |  |  | Fold change related to DMSO control, HAQ ([1]; compound concentration 73.3 μM): 13.17 fold; Fold change related to DMSO control, WT ([3]; compound concentration 73.3 μM): 3.47 fold
5 | CCn1nc(C)cc1C(=O)Nc1nc2cc(C(N)=O)cc3c2n1[C@@H](CCNC(=O)OCc1ccccn1)CO3 [Example 9, Pyridin-2-ylmethyl (S)-(2-(7-carbamoyl-2-(1-ethyl-3-methyl-1H-pyrazole-5-carboxamido)-3,4-dihydro-5-oxa-1,2a-diazaacenaphthylen-3-yl)ethyl)carbamate] | inactive |  |  | Fold change related to DMSO control, HAQ [1, 7]: 21.28 fold; Fold change related to DMSO control, WT [3, 7]: 2.86 fold

Further lines, with some results ahead:

Row | hIFNβ ELISA (EC50, μM) [2] | Fold change related to DMSO control, HAQ ([1]; compound concentration 25 μM) [fold] | Fold change related to DMSO control, WT ([3]; compound concentration 25 μM) [fold] | SMILES | other results
6 | inactive |  |  | CCn1nc(C)cc1C(=O)Nc1nc2cc(C(N)=O)cc3c2n1[C@@H](CCCCNC(=O)OCc1ccncc1)CO3 [Example 20, Pyridin-4-ylmethyl (S)-(4-(7-carbamoyl-2-(1-ethyl-3-methyl-1H-pyrazole-5-carboxamido)-3,4-dihydro-5-oxa-1,2a-diazaacenaphthylen-3-yl)butyl)carbamate] | Fold change related to DMSO control, HAQ [1, 5]: 16.22 fold; Fold change related to DMSO control, WT [3, 5]: 1.43 fold
7 | inactive | 22.11 | 2.71 | CCn1nc(C)cc1C(=O)Nc1nc2cc(C(N)=O)cc3c2n1[C@@H](CCCNC(=O)/C=C/c1ccccc1)CO3 [Example 31, (S)-3-(3-Cinnamamidopropyl)-2-(1-ethyl-3-methyl-1H-pyrazole-5-carboxamido)-3,4-dihydro-5-oxa-1,2a-diazaacenaphthylene-7-carboxamide] | 
8 | inactive | 95.64 | 3.02 | CCn1nc(C)cc1C(=O)Nc1nc2cc(C(N)=O)cc3c2n1[C@@H](C)CCO3 [Example 22, (S)-1-(1-Ethyl-3-methyl-1H-pyrazole-5-carboxamido)-9-methyl-8,9-dihydro-7H-6-oxa-2,9a-diazabenzo[cd]azulene-4-carboxamide] | 
9 | inactive | 81.27 | 2.62 | CCC[C@H]1COc2cc(C(N)=O)cc3nc(NC(=O)c4cc(C)nn4CC)n1c23 [Example 23, (S)-2-(1-Ethyl-3-methyl-1H-pyrazole-5-carboxamido)-3-propyl-3,4-dihydro-5-oxa-1,2a-diazacenaphthylene-7-carboxamide] | 
